In brackets after ≈: the same amount, converted by molar mass. Activity calls are given as the source filed them. No cut-off for these calls is given here.
What was measured:
[1] = test system: Klebsiella pneumoniae; assay: Antibacterial activity against Klebsiella pneumoniae at 256 ug/ml by broth microdilution method; type: functional, organism-based; settings: dose 256.0 µg/ml
[2] = test system: Staphylococcus aureus; assay: Antibacterial activity against methicillin-resistant Staphylococcus aureus by broth microdilution method; type: functional
[3] = test system: Acinetobacter baumannii; assay: Antibacterial activity against Acinetobacter baumannii at 256 ug/ml by broth microdilution method; type: functional, organism-based; settings: dose 256.0 µg/ml
[4] = test system: Pseudomonas aeruginosa; assay: Antibacterial activity against Pseudomonas aeruginosa at 256 ug/ml by broth microdilution method; type: functional, organism-based; settings: dose 256.0 µg/ml
[5] = test system: Klebsiella aerogenes; assay: Antibacterial activity against Klebsiella aerogenes at 256 ug/ml by broth microdilution method; type: functional, organism-based; settings: dose 256.0 µg/ml
[6] = test system: Staphylococcus aureus; assay: Antibacterial activity against Staphylococcus aureus at 256 ug/ml by broth microdilution method; type: functional, organism-based; settings: dose 256.0 µg/ml
[7] = test system: Staphylococcus aureus; assay: Antibacterial activity against Staphylococcus aureus by broth microdilution method; type: functional
[8] = test system: Staphylococcus aureus; assay: Antibacterial activity against Staphylococcus aureus; type: functional
[9] = test system: Staphylococcus aureus; assay: Antibacterial activity against methicillin-resistant Staphylococcus aureus; type: functional

Structure (SMILES)	Activity [1]	MIC [2]	Activity [3]	Activity [4]	Activity [5]	Activity [6]	MIC [7]	MIC [8]	MIC [9]
COc1cc(C(=O)/C=C/c2cccc(F)c2)cc([N+](=O)[O-])c1O	inactive	64 µg/mL (≈ 202 µM)	inactive	inactive	inactive	Active	32 µg/mL (≈ 101 µM)		
COc1cc(C(=O)/C=C/c2ccc(Cl)c(Cl)c2)ccc1O	inactive		inactive	inactive	inactive	inactive			
COc1cc(C(=O)/C=C/c2ccc(Cl)cc2Cl)cc([N+](=O)[O-])c1O	inactive	256 µg/mL (≈ 695 µM)	inactive	inactive	inactive	Active	256 µg/mL (≈ 695 µM)		
COc1cc(C(=O)/C=C/c2ccc([N+](=O)[O-])cc2)cc([N+](=O)[O-])c1O	inactive	64 µg/mL (≈ 186 µM)	inactive	inactive	inactive	Active	32 µg/mL (≈ 92.9 µM)		
COc1cc(C(=O)/C=C/c2ccc(Cl)cc2)ccc1O	inactive		inactive	inactive	inactive	inactive			
CCOc1ccc(/C=C/C(=O)c2ccc(O)c(OC)c2)cc1	inactive	32 µg/mL (≈ 107 µM)	inactive	inactive	inactive	Active	16 µg/mL (≈ 53.6 µM)		
COc1cc(C(=O)/C=C/c2cccc(C(F)(F)F)c2)ccc1O	inactive		inactive	inactive	inactive	inactive			
COc1cc(C(=O)/C=C/c2ccc(Cl)cc2)cc([N+](=O)[O-])c1O	inactive	32 µg/mL (≈ 95.9 µM)	inactive	inactive	inactive	Active	16 µg/mL (≈ 47.9 µM)		
COc1cc(C(=O)/C=C/c2ccc(SC)cc2)ccc1O	inactive		inactive	inactive	inactive	inactive			
O=C(/C=C/c1ccc(Cl)c(Cl)c1)c1cc(O)c(O)c([N+](=O)[O-])c1								1 µg/mL (≈ 2.82 µM)	16 µg/mL (≈ 45.2 µM)
COc1cc(C(=O)/C=C/c2ccc(F)cc2)ccc1O	inactive		inactive	inactive	inactive	inactive			
COc1cc(C(=O)/C=C/c2ccc(Cl)cc2Cl)ccc1O	inactive		inactive	inactive	inactive	inactive			
COc1cc(C(=O)/C=C/c2ccc(Br)cc2F)ccc1O	inactive		inactive	inactive	inactive	inactive			
COc1cc(C(=O)/C=C/c2cccc(Cl)c2)cc([N+](=O)[O-])c1O	inactive	64 µg/mL (≈ 192 µM)	inactive	inactive	inactive	Active	16 µg/mL (≈ 47.9 µM)		
COc1cc(C(=O)/C=C/c2ccc(F)cc2)cc([N+](=O)[O-])c1O	inactive	64 µg/mL (≈ 202 µM)	inactive	inactive	inactive	Active	64 µg/mL (≈ 202 µM)		
COc1cc(C(=O)/C=C/c2cccc(Cl)c2)ccc1O	inactive		inactive	inactive	inactive	inactive			
COc1cc(C(=O)/C=C/c2cccc(F)c2)ccc1O	inactive		inactive	inactive	inactive	inactive			
COc1cc(C(=O)/C=C/c2ccc(SC)cc2)cc([N+](=O)[O-])c1O	inactive	> 256 µg/mL	inactive	inactive	inactive	Active	128 µg/mL (≈ 371 µM)		
COc1cc(C(=O)/C=C/c2ccc(Cl)c(Cl)c2)cc([N+](=O)[O-])c1O	inactive	8 µg/mL (≈ 21.7 µM)	inactive	inactive	inactive	Active	8 µg/mL (≈ 21.7 µM)		
COc1cc(C(=O)/C=C/c2cccc(C(F)(F)F)c2)cc([N+](=O)[O-])c1O	inactive	64 µg/mL (≈ 174 µM)	inactive	inactive	inactive	Active	32 µg/mL (≈ 87.1 µM)		
CC(=O)N1N=C(c2cc(O)c(O)c([N+](=O)[O-])c2)CC1c1ccc(Cl)cc1 (centres undefined)								0.5 µg/mL (≈ 1.33 µM)	32 µg/mL (≈ 85.2 µM)
